Test results from patent publication US9513294B2, “Megastokes amino-triazolyl-BODIPY compounds and applications to live neuron staining and human serum albumin FA1 drug site probing” (National University of Singapore, priority 2012, dated 2016).

What was measured:
[1] = Absorbance and fluorescence emission spectra (SpectraMax M2); type: physicochemical; settings: for λmax Abs. (nm) / λmax Em. (nm): MKAC compound library; for λmax Abs. (nm) / λmax Absorp. (nm): absorbance maximum; for λmax Em. (nm) / λmax Emission (nm): fluorescence emission maximum; for λmax Absorp. (nm) / λmax Emission (nm): MKCA compound library
In short: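 Spectroscopic data, including quantum yields, were recorded with a SpectraMax M2 instrument and analysed in GraphPrism.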

[2] = Quantum yield measurements versus Acridine Yellow in EtOH; type: physicochemical; settings: for φ (%): quantum yield; for φ (quantum yield): excitation 460 nm
In short: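 Emission areas integrated over 510–700 nm were compared with Acridine Yellow in ethanol (Φ=0.47), all excited at 460 nm. The comparative equation was normalized to excitation-wavelength absorbance and solvent refractive index.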

SMILES: CC(=O)Nc1ccc(C2=C3C=CC(N4CCc5ccccc5C4)=[N+]3[B-](F)(F)n3c2ccc3-n2cc(CC3CCCCC3)nn2)cc1 [MKAC66-8]
- λmax Abs. (nm) [1]: 469 nm
- λmax Em. (nm) [1]: 578 nm
- φ (%) ([2]; MKAC compound library): 2.20%

SMILES: O=C(CCl)Nc1ccc(C2=C3C=CC(N4CCCCC4)=[N+]3[B-](F)(F)n3c2ccc3-n2cc(C3(O)CCCC3)nn2)cc1 [BDCCA-67]
- λmax Absorp. ([1]; BDCCA library, Table 4): 468 nm
- λmax Emission ([1]; BDCCA library, Table 4): 590 nm
- φ (quantum yield) ([2]; BDCCA library, Table 4): 0.7%

SMILES: CCCCCC(O)c1cn(-c2ccc3n2[B-](F)(F)[N+]2=C(NCc4cc(F)cc(F)c4)C=CC2=C3c2ccc(NC(C)=O)cc2)nn1 (stereo not drawn) [MKAC412-69]
- λmax Abs. (nm) [1]: 468 nm
- λmax Em. (nm) [1]: 563 nm
- φ (%) ([2]; MKAC compound library): 17.68%

SMILES: CCCCCCCCCCc1cn(-c2ccc3n2[B-](F)(F)[N+]2=C(N4CCCCC4)C=CC2=C3c2ccc(N)cc2)nn1 [BDC-49]
- λmax Absorp. ([1]; BDC library, Table 2): 475 nm
- λmax Emission ([1]; BDC library, Table 2): 589 nm
- φ (quantum yield) ([2]; BDC library, Table 2): 0.12%

SMILES: CCc1ccc(-c2cn(-c3ccc4n3[B-](F)(F)[N+]3=C(N5CCCCC5)C=CC3=C4c3ccc(N)cc3)nn2)cc1 [BDC-46]
- λmax Absorp. ([1]; BDC library, Table 2): 473 nm
- λmax Emission ([1]; BDC library, Table 2): 585 nm
- φ (quantum yield) ([2]; BDC library, Table 2): 0.10%

SMILES: CCOc1ccccc1CNC1=[N+]2C(=C(c3ccc(NC(=O)CCl)cc3)c3ccc(-n4cc(C5CCCC5)nn4)n3[B-]2(F)F)C=C1 [MKCA103-5]
- λmax Absorp. (nm) [1]: 464 nm
- λmax Emission (nm) [1]: 563 nm
- φ (%) ([2]; MKCA compound library): 33.46%

SMILES: CCOc1ccccc1CNC1=[N+]2C(=C(c3ccc(N)cc3)c3ccc(-n4cc(CC5CCCCC5)nn4)n3[B-]2(F)F)C=C1 [MK103-8]
- λmax Absorp. ([1]; MK library, Table 5): 473 nm
- λmax Emission ([1]; MK library, Table 5): 563 nm
- φ (quantum yield) ([2]; MK library, Table 5): 1.64%

SMILES: O=C(CCl)Nc1ccc(C2=C3C=CC(N4CCCCC4)=[N+]3[B-](F)(F)n3c2ccc3-n2cc(-c3cccc(F)c3)nn2)cc1 [BDCCA-31]
- λmax Absorp. ([1]; BDCCA library, Table 4): 462 nm
- λmax Emission ([1]; BDCCA library, Table 4): 568 nm
- φ (quantum yield) ([2]; BDCCA library, Table 4): 1.0%

SMILES: CCOc1ccccc1CNC1=[N+]2C(=C(c3ccc(NC(=O)CCl)cc3)c3ccc(-n4cc(CC5CCCCC5)nn4)n3[B-]2(F)F)C=C1 [MKCA103-8]
- λmax Absorp. (nm) [1]: 464 nm
- λmax Emission (nm) [1]: 563 nm
- φ (%) ([2]; MKCA compound library): 37.77%

SMILES: CC(=O)Nc1ccc(C2=C3C=CC(N4CCCCC4)=[N+]3[B-](F)(F)n3c2ccc3-n2cc(C3=CCCCC3)nn2)cc1 [BDCAC-37]
- λmax Absorp. ([1]; BDCAC library, Table 3): 466 nm
- λmax Emission ([1]; BDCAC library, Table 3): 565 nm
- φ (quantum yield) ([2]; BDCAC library, Table 3): 1.9%

SMILES: O=C(CCl)Nc1ccc(C2=C3C=CC(N4CCCCC4)=[N+]3[B-](F)(F)n3c2ccc3-n2cc(C3=CCCCC3)nn2)cc1 [BDCCA-37]
- λmax Absorp. ([1]; BDCCA library, Table 4): 465 nm
- λmax Emission ([1]; BDCCA library, Table 4): 565 nm
- φ (quantum yield) ([2]; BDCCA library, Table 4): 1.7%

SMILES: COc1ccc(OC)c(CNC2=[N+]3C(=C(c4ccc(NC(C)=O)cc4)c4ccc(-n5cc(CC(C)C)nn5)n4[B-]3(F)F)C=C2)c1 [MKAC181-43]
- λmax Abs. (nm) [1]: 467 nm
- λmax Em. (nm) [1]: 562 nm
- φ (%) ([2]; MKAC compound library): 13.79%

SMILES: CN(Cc1ccccc1)Cc1cn(-c2ccc3n2[B-](F)(F)[N+]2=C(N(C)Cc4ccccc4)C=CC2=C3c2ccc(N)cc2)nn1 [MK195-18]
- λmax Absorp. ([1]; MK library, Table 5): 475 nm
- λmax Emission ([1]; MK library, Table 5): 580 nm
- φ (quantum yield) ([2]; MK library, Table 5): 0.52%

SMILES: Cc1ccccc1CNC1=[N+]2C(=C(c3ccc(N)cc3)c3ccc(-n4cc(CCc5ccccc5)nn4)n3[B-]2(F)F)C=C1 [MK101-19]
- λmax Absorp. ([1]; MK library, Table 5): 472 nm
- λmax Emission ([1]; MK library, Table 5): 560 nm
- φ (quantum yield) ([2]; MK library, Table 5): 2.03%

SMILES: COc1ccc(OC)c(CNC2=[N+]3C(=C(c4ccc(N)cc4)c4ccc(-n5cc(CC6CCCCC6)nn5)n4[B-]3(F)F)C=C2)c1 [MK181-8]
- λmax Absorp. ([1]; MK library, Table 5): 474 nm
- λmax Emission ([1]; MK library, Table 5): 565 nm
- φ (quantum yield) ([2]; MK library, Table 5): 0.33%

SMILES: CC(=O)Nc1ccc(C2=C3C=CC(NCc4cc(F)cc(F)c4)=[N+]3[B-](F)(F)n3c2ccc3-n2cc(C3CC3)nn2)cc1 [MKAC412-4]
- λmax Abs. (nm) [1]: 466 nm
- λmax Em. (nm) [1]: 562 nm
- φ (%) ([2]; MKAC compound library): 26.84%

SMILES: CC(C)Cc1cn(-c2ccc3n2[B-](F)(F)[N+]2=C(N(C)Cc4ccccc4)C=CC2=C3c2ccc(NC(=O)CCl)cc2)nn1 [MKCA195-43]
- λmax Absorp. (nm) [1]: 465 nm
- λmax Emission (nm) [1]: 575 nm
- φ (%) ([2]; MKCA compound library): 4.97%

SMILES: O=C(CCl)Nc1ccc(C2=C3C=CC(N4CCCC4)=[N+]3[B-](F)(F)n3c2ccc3-n2cc(C3CC3)nn2)cc1 [MKCA215-4]
- λmax Absorp. (nm) [1]: 462 nm
- λmax Emission (nm) [1]: 570 nm
- φ (%) ([2]; MKCA compound library): 3.35%

SMILES: CC(=O)Nc1ccc(C2=C3C=CC(N4CC(C)OC(C)C4)=[N+]3[B-](F)(F)n3c2ccc3-n2cc(CCc3ccccc3)nn2)cc1 (stereo not drawn) [MKAC20-19]
- λmax Abs. (nm) [1]: 467 nm
- λmax Em. (nm) [1]: 579 nm
- φ (%) ([2]; MKAC compound library): 3.12%

SMILES: CC1CN(C2=[N+]3C(=C(c4ccc(N)cc4)c4ccc(-n5cc(C6CCCC6)nn5)n4[B-]3(F)F)C=C2)CC(C)O1 (stereo not drawn) [MK20-5]
- λmax Absorp. ([1]; MK library, Table 5): 476 nm
- λmax Emission ([1]; MK library, Table 5): 580 nm
- φ (quantum yield) ([2]; MK library, Table 5): 0.57%
